Test results as given in patent US20170088589A1, “STATIN RESISTANCE AND EXPORT” (DANMARKS TEKNISKE UNIVERSITET, priority 2014, published 2017).

Assays:
[1] = test system: Saccharomyces cerevisiae strains (wt, ARX3, AR29 pdr5Δ, pdr5Δ); assay: agar-plate dilution assay (spot assay) with lovastatin, PDR5 complementation (FIG. 4); details: lowest tested concentration (0.74 mM) of activated lovastatin, 30° C., 3 days
Procedure: The constructed strains response to different lovastatin levels present in the growth medium were tested using a agar-plate dilution assay (also known as a spot assay). Overnight cultures of the four Saccharomyces cerevisiae strains (wt, ARX3, AR29 pdr5Δ, pdr5Δ,) were diluted to OD600 of 0.2 and a fivefold dilution series for each strain was made. […] The growth of the individual strain as a function of time was recorded by photography.

[2] = test system: Saccharomyces cerevisiae WT and ARX3 strain harbouring the putative efflux pump MlcE; assay: serial dilution plating of WT and ARX3 on YPD agar plates containing different cytotoxic compounds (FIG. 3); assay type: cell-based; details: compound in YPD agar, tenfold dilution series, 30° C., 2 days; compactin, lovastatin, simvastatin in active form
Procedure: Investigation of the potential of MlcE to confer the resistance to statins in yeast. Tenfold dilution series of Saccharomyces cerevisiae WT and ARX3 strain harbouring the putative efflux pump MlcE, starting with an OD600 of 0.02 were prepared from overnight cultures.
Moreover, to determine if the putative efflux pump MlcE has the ability to export statins across the plasma membrane the inventors of the present application also tested whether MlcE confers resistance to statins in yeast. […] The resulting yeast strain ARX3 was tested for susceptibility to compactin by serial dilution plating of both wild type (WT) and ARX3 strains on YPD agar plates supplemented with the active form of compactin (FIG. 3).

Row | SMILES | growth of pdr5Δ strain [1] | resistance of MlcE-expressing strain ARX3 compared to the wild type strain [2]
1 | CC[C@H](C)C(=O)O[C@H]1C[C@@H](C)C=C2C=C[C@H](C)[C@H](CC[C@@H]3C[C@@H](O)CC(=O)O3)[C@H]21 [lovastatin] | lack of growth | increased resistance
2 | CC(C)c1c(C(=O)Nc2ccccc2)c(-c2ccccc2)c(-c2ccc(F)cc2)n1CC[C@@H](O)C[C@@H](O)CC(=O)O [atorvastatin] |  | does not show an increased resistance
3 | CC[C@H](C)C(=O)O[C@H]1CCC=C2C=C[C@H](C)[C@H](CC[C@@H]3C[C@@H](O)CC(=O)O3)[C@H]21 [compactin] |  | increased resistance
4 | COc1c(C)c2c(c(O)c1C/C=C(\C)CCC(=O)O)C(=O)OC2 [mycophenolic acid] |  | does not show an increased resistance
5 | COc1cc(C=O)ccc1O [vanillin] |  | does not show an increased resistance
